Measurements from ChEMBL document CHEMBL5727340, “Substituted nucleoside derivatives useful as anticancer agents” (2019).

test: PRMT5 assay: Compounds were solubilized in DMSO and serially diluted, using 3-fold dilutions, into 100% DMSO at a concentration 50-fold greater than the desired assay concentration. Following dilution, 1 ul was added to an empty 96-well microtiter plate. PRMT5/MEP50 protein complex was combined with H4(1-21) peptide ([…]) in PRMT5 assay buffer (50 mM Tris pH 8.5, 50 mM NaCl, 5 mM MgCl2, 1 mM EDTA, 1 mM TCEP) and 44 ul was added to the microtiter plate containing compound. S-Adenosyl-L-methionine (SAM) was prepared by combining 3H labelled SAM with unlabelled SAM in PRMT5 assay buffer such that the final SAM concentration was 10 uM and the specific activity was 0.2 uCi/ul. The reaction was initiated by adding 5 ul of SAM stock to the microtiter plate. The final reaction conditions were 10 nM PRMT5/MEP50 complex, 200 nM peptide and 1 uM SAM. Following a 25 minute incubation at room temperature, the reaction was stopped with the addition of 100 uL of 20% TCA. The 3H-peptide product was captured using a 96-well filter plate (MSIPN4B, Millipore) and washed 5 times with PBS buffer. Scintillation fluid (100 ul) was added to the dried filter plate and counted in a liquid scintillation counter. IC50 values were determined by fitting the data to the standard 4-parameter dose response equation using Pfizer proprietary software.

Row | SMILES | IC50 [nM]
1 | Cc1ncnc2c1ccn2[C@@H]1O[C@@H](C(C)O)[C@H]2OC(C)(C)O[C@H]21 (some centres undefined) | 1730
2 | Cc1ncnc2c1ccn2[C@@H]1O[C@H]([C@H](O)c2ccc3ccn(C)c3c2)[C@@H](O)[C@H]1O | 10
3 | Cc1ncnc2c1ccn2[C@@H]1O[C@@H](C(C)(C)O)[C@H]2OC(C)(C)O[C@H]21 | 3240
4 | Cc1ncnc2c1ccn2[C@@H]1O[C@H]([C@@H](O)c2cccc(F)c2)[C@@H](O)[C@H]1O | 2640
